Data on two compounds can be found in ChEMBL document CHEMBL4359843, “Linear and Rationally Designed Stapled Peptides Abrogate TLR4 Pathway and Relieve Inflammatory Symptoms in Rheumatoid Arthritis Rat Model” (J Med Chem, 2019).

Activity calls are given as the source filed them. The rule behind the calls is not given here. Where a SMILES comes first, the peptide text is derived from it. Bridges are numbered along the chain shown (N, C = ends).

For assay [1], the system named is Rattus norvegicus. The experiment in a line: Antiarthritic activity in Lewis rat model of complete Freund's adjuvant-induced arthritis assessed as reduction in inflammation synovial tissues at 1 nmol/g administered intra-articularly into knee joint after 1 week by Safranin-O staining based histopathological analysis. The assay is classed as functional, organism-based.

For assay [2], the target named is T1, Toll-like receptor 4 (Mus musculus) (UniProt Q9QUK6).
T1 sequence (whole entry): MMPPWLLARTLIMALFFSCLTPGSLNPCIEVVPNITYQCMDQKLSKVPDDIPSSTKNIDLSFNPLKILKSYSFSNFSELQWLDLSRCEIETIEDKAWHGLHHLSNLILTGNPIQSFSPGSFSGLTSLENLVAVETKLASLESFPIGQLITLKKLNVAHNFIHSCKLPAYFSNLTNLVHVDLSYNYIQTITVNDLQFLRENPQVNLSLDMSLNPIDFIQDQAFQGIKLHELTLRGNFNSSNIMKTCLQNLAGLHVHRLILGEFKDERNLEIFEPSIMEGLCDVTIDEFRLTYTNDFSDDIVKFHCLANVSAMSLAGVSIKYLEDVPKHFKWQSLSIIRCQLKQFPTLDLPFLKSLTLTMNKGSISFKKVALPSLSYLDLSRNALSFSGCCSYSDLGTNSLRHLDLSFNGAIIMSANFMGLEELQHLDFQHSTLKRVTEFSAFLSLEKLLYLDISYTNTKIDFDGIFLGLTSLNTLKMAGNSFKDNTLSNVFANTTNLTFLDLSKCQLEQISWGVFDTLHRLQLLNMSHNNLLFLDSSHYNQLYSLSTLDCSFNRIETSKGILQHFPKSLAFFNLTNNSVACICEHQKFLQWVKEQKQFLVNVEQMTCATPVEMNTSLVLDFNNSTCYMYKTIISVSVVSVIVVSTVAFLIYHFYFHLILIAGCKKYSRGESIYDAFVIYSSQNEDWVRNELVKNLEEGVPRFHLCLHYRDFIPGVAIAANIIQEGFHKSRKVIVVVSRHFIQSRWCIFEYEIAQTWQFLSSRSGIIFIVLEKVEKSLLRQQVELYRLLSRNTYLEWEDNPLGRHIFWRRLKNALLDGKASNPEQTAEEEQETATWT
The experiment in a line: Antagonist activity at TLR4 in mouse RAW264.7 cells assessed as reduction in LPS-induced p38 phosphorylation at 80 uM after 15 to 30 mins by Western blot analysis. The class given is cell-based.

The target in assay [3] is TLR2/TLR6 (Homo sapiens) (UniProt O60603+Q9Y2C9). Briefly: Antagonist activity at TLR2/6 in human PBMC cells assessed as reduction in FSL-1-induced TNFalpha secretion at 20 to 80 uM after 24 hrs by ELISA. The class given is cell-based.

`CC[C@H](C)[C@@H]1NC(=O)[C@H](Cc2c[nH]c3ccccc23)NC(=O)[C@H](Cc2c[nH]c3ccccc23)NC(=O)[C@@H](NC(=O)[C@H](CO)NC(=O)[C@H](Cc2ccccc2)NC(=O)[C@@H](NC(=O)CNC(=O)[C@@H](N)CC(C)C)C(C)C)CC(=O)NCCCC[C@@H](C(=O)N[C@@H](CC(C)C)C(=O)N[C@H](C(=O)O)C(C)C)NC1=O` (H-LGVFSDWWIKLV-OH; lactam 6-10): the result in assay [1] was Active.

Regarding H-LGVFSSWWIKLV-OH, in assay [2], the outcome was Active. The outcome in assay [3] was inactive.
